Test results from paper PMC7217877, “N-AS-triggered SPMs are direct regulators of microglia in a model of Alzheimer’s disease” (Nature Communications, 2020).

Assays:
[1] = stability (isomerization) of acetyl sphingosine isomers in phosphate buffer pH 7.4 (LC-ELSD); format: physicochemical
Experimental: To a solution of 1-O-AS (0.25 mg) or 3-O-AS (0.25 mg) in water (400 μl) and DMSO (50 μl) at RT was added sodium phosphate buffer (pH 7.4, 0.1 M, 50 μl). The solution was mixed homogeneously with micropipette and was incubated at 25 °C for 10 min. Reverse-phase HPLC was performed using Agilent 1220 coupled with Agilent 1260 Infinity ELSD. Phenomenex Kinetex 1.7 μm C8 100 A ([…] LC column) at a flow rate of 0.5 ml min^−1 was used. A gradient of acetonitrile with 0.1% formic acid was used as an eluent.

[2] = tested on: immortalized human microglia; test: LM-SPM profile of human microglia (LC-MS/MS, Supplementary Table 3, Fig 6d); format: cell-based
[3] = tested on: immortalized human microglia; test: live-cell phagocytosis assay (bead uptake, Supplementary Fig 6e,f); format: cell-based; settings: zileuton with N-AS in Aβ-treated human microglia
Experimental: Live-cell phagocytosis assays were performed according to previously described procedures with minor modifications. Briefly, in a glass bottom cell culture dish (SPL, 101350), adult SV40 immortalized human microglia cells (Applied Biologics Materials, T0251) were seeded for phagocytosis assay. […] After incubation, the microglia were treated with 0 or 2.5 μM N-AS (Sigma-Aldrich, 01912) at 37 °C for 2 h. FITC beads (Invitrogen) preopsonized in FBS (Gibco) were added at a concentration at 0.01% and then immediately observed using a laser scanning confocal microscope equipped with a live cell chamber system (FV3000, Olympus) for 2 h. Confocal images were collected every 5 min for 2 h and analyzed using the ImageJ software (National Institutes of Health).

[4] = tested on: immortalized human microglia; test: ac-S565 COX2 in human microglia (western blot, immunofluorescence, Supplementary Fig 6b,c); format: cell-based; settings: zileuton with N-AS in Aβ-treated human microglia vs without zileuton
Experimental: To confirm the generation and roles of N-AS in neurons, cells from E18 C57BL/6 mice were prepared as previously described. Cortices were dissected and then dissociated followed by incubation in papain (Worthington) at 37 °C for 15 min. Neurons were plated on poly-L-lysine-coated coverslips with neuronal culture medium, serum-free Neurobasal medium (Gibco) containing 2% B27 supplements (Gibco), 1 mM Glutamax supplement (Gibco), and 100 U ml^−1 streptomycin/ 100 U ml^−1 penicillin (Gibco) at 37 °C in a humidified atmosphere of 5% CO2. Aβ 1–42 (10 μM, 24 h, Invitrogen, 03112) was exposed to neurons and the cells were analyzed for the generation and roles of N-AS. Primary astrocyte cultures were prepared from C57BL/6 mice as described previously. In brief, after removal of the meninges, postnatal day 7 (P7) mouse brain tissues were minced and incubated in a rocking water bath at 37 °C for 30 min in the presence of 0.25% trypsin-EDTA (Sigma-Aldrich). Enzyme-digested dissociated cells were triturated with astrocyte-specific medium (DMEM/F12 containing 10% FBS and 1% penicillin-streptomycin) and centrifuged at 155×g for 8 min. The pellet was resuspended in astrocyte-specific medium and passed through a 40-μm cell strainer. The filtrate was allowed pre-adherence for 30 min to remove any contamination from fibroblasts before being seeded in dishes and the addition of astrocyte-specific medium. To split the cells, Ara-C was added to the dishes and they were then placed in a heated shaker for 6–7 h. The medium was removed from the dishes, and trypsin-EDTA was added to the dish and incubated at 37 °C for 5–10 min. After centrifugation at 155×g for 8 min, the supernatant was removed, and the astrocytes were maintained in culture by feeding […] with astrocyte-specific medium. Primary microglia cultures were prepared from C57BL/6 mice as described previously. In brief, the cortices of 2-months-old mice were minced in Hibernate A (Gibco)/B27 supplements (Gibco) medium and dissociated using papain (Worthington) solution. After tissue trituration, cells were separated by Optiprep (Sigma-Aldrich) density gradient centrifugation. Microglia were plated with microglia-specific medium (DMEM/F12 containing 10% FBS and 1% penicillin-streptomycin). The immortalized human microglia (Applied Biologics Materials, T0251) were cultured in PriGrow III (Applied Biologics Materials, TM003) (supplemented with 10% FBS and 1% penicillin-streptomycin) at 37 °C in a humidified atmosphere of 5% CO2. […] The human microglia treated with Aβ 1–42 and/or zileuton was incubated with N-AS (2.5 μM, 2 h, Sigma-Aldrich, 01912), and were analyzed for the generation and roles of N-AS.
Thioflavin S (Sigma-Aldrich) staining was carried out according to previously described procedures. We used 6E10 (mouse, 1:100, Signet, SIG39300), anti-20G10 (mouse, 1:1000, provided by D. R. Howlett, GlaxoSmithKline, Harlow, Essex, UK) for Aβ42, anti-G30 (rabbit, 1:1000, provided by D. R. Howlett) for Aβ40, SMA (mouse, 1:400, Sigma-Aldrich, A2547), AT8 (mouse, 1:500, Thermo Fisher Scientific, MN1020), Caspase-3 (mouse, 1:200, Novus Biologicals, NB100-56708), ac-S565 (rabbit, 1:100), COX2 (mouse, 1:250, Thermo Fisher Scientific, 35-8200), Iba1 (rabbit, 1:500, Wako, 019-19941 and goat, Abcam, ab5076), NeuN (mouse, 1:500, Millipore, MAB177), GFAP (rabbit, 1:500, Dako, N1506 and chicken, 1:500, Abcam, ab4674), and Lamp1 (mouse, 1:200, Abcam, ab24170). The sections were analyzed with a laser-scanning confocal microscope (FV3000; Olympus) or with a BX51 microscope (Olympus). MetaMorph software (Molecular Devices) was used to quantification. Three-dimensional reconstruction of microglia was recorded and analyzed using IMARIS software (Bitplane)[11]. […]

COX2 = test: SphK1-mediated COX2 acetylation with [14C] acetyl-CoA (ATP competition, SphK1 mutants; Supplementary Fig 1h,i); format: biochemical, human; settings: ATP 0-1000 µM as competitor of acetyl-CoA
From the text: Single point mutations in SphK1 (R56A, R57A, R24A, R185A, D178A, and F192A) and COX2 (S565A, N181A, T564A, and S567A) were generated using the In-Fusion Cloning Kits (Clontech) and ORF cDNA expression plasmids of human SphK1 and COX2 gene (Sino Biological Inc, HG15679-NH and HG12036-NH), according to the manufacturer’s instructions. The forward and reverse primers described in Supplementary Table 4. The SphK1 WT, SphK1 mutants, COX2 WT, and COX2 mutant plasmids were transformed in the One shot TOP 10 competent cell (Invitrogen). The bacteria were grown in Luria-Bertani (LB, Invitrogen) plates supplemented with 50 μg ml^−1 kanamycin (Sigma-Aldrich) at 37 °C. The bacterial cell pellets were resuspended in lysis buffer containing 20 mM sodium phosphate (GE Healthcare), 500 mM NaCl (GE Healthcare), 20 mM imidazole (pH 7.4) (GE Healthcare), 0.2 mg ml^−1 lysozyme (Sigma-Aldrich), 20 μg ml^−1 DNase I (Roche), 1 mM MgCl2 (Sigma-Aldrich), and 1 mM PMSF (Sigma-Aldrich) before being lysed by sonication and clarified by centrifugation at 15,493×g for 10 min. Proteins were purified from the soluble fraction using His-Spin Trap columns (GE Healthcare) and the binding and acetylation assays were performed.
Acetylation assays were performed according to previously described procedures with minor modifications. […] N-AS (2 μCi, ARC UK Ltd, ARC-1024) at 37 °C for 2 h. [^14C] aspirin (2 μCi, ARC UK Ltd, ARC-0473) was conducted as the positive control. The reactions were terminated by placing the reaction tubes in ice for 5 min. To evaluate in vivo neuronal and microglial COX2 acetylation, 10 μCi [^14C] N-AS was orally administrated to 9-months-old WT and APP/PS1 mice. After 1 h, neuron and microglia were isolated and sonicated in culture media. To immunoprecipitate acetylated COX2, the sample was incubated with COX2 antibody (Abcam, ab15191) at 4 °C for 24 h and precipitated by adding 50 μl of protein-A sepharose (GE Healthcare). Acetylated COX2 proteins bound to the beads were analyzed using a Tri-Carb 3110TR liquid scintillation counter (Perkin-Elmer).

## CCCCCCCCCCCCC/C=C/[C@@H](O)[C@@H](N)COC(C)=O.O=C(O)C(F)(F)F [1-O-AS, (2S,3R,E)-1-Acetoxy-3-hydroxyoctadec-4-en-2-aminium trifluoroacetate]
[1]
  time to isomerization to N-AS: less than 10 min

## CC(c1cc2ccccc2s1)N(O)C(N)=O (centres unmarked) [zileuton, reference compound]
[2]; zileuton treatment
  LTB4, in words: LTB4 was not detected
  PGE2, in words: reduced PGE2
[2]; zileuton with N-AS in Aβ-treated human microglia
  production of N-AS-triggered SPMs, in words: inhibited
[3]
  restoration of phagocytic capacity, in words: inhibited
[4]
  N-AS-induced COX2 acetylation, in words: no significant

## CCCCCCCCCCCCC/C=C/[C@@H](OC(C)=O)[C@@H](N)CO.O=C(O)C(F)(F)F [3-O-AS, (2S,3R,E)-3-Acetoxy-1-hydroxyoctadec-4-en-2-aminium trifluoroacetate]
[1]
  time to isomerization to N-AS: less than 10 min

## Nc1ncnc2c1ncn2[C@@H]1O[C@H](COP(=O)(O)OP(=O)(O)OP(=O)(O)O)[C@@H](O)[C@H]1O [ATP]
COX2
  SphK1-mediated COX2 acetylation, in words: inhibited in a concentration dependent manner
